Our source for the IC50 and EC50 values is ChEMBL document CHEMBL1201862, “PubChem BioAssay data set” (2004).

Experiment [1] addresses T1, Runt-related transcription factor 1/Core-binding factor subunit beta (Homo sapiens, UniProt Q01196+Q13951). Kind of experiment: Runt domain/CBFb-SMMHC interaction disruptors – biochemical, TR-FRET (AID 1438). It counts as protein assay.
Experiment [2] addresses T1, Runt-related transcription factor 1/Core-binding factor subunit beta. Kind of experiment: disruptors of Runt domain/CBFb-SMMHC interaction – biochemical, FRET, Cerulean-Runt, Venus-CBFb-SMMHC, uHTS, […] (AID 1434). It counts as protein assay.
Experiment [3] concerns the target T2, Cannabinoid receptor 2 (Homo sapiens, UniProt P34972). Nature of the experiment: SAR analysis of antagonists of the Cannabinoid Receptor 2 using an Image-Based Assay - Set 2. [Related pubchem assays (depositor defined):AID1961, AID1965]. It counts as functional.
Experiment [4] addresses T3, Cannabinoid receptor 1 (Homo sapiens, UniProt P21554). Nature of the experiment: SAR analysis of antagonists of the Cannabinoid Receptor 1 using an Image-Based Assay - Set 3. [Related pubchem assays (depositor defined):AID1961, AID1965]. The class given is functional.
For experiment [5], the target named is T3, Cannabinoid receptor 1. Kind of experiment: SAR analysis of agonists of the Cannabinoid Receptor 1 using an Image-Based Assay - Set 3. [Related pubchem assays (depositor defined):AID1961, AID1965]. The class given is functional.
Experiment [6] has as its target G-protein coupled receptor 55 (Homo sapiens, UniProt Q9Y2T6). Kind of experiment: SAR analysis of selective Agonists of GPR55 using an Image-Based Assay - Set 2. [Related pubchem assays (depositor defined):AID1961, AID1965]. The class given is functional.
For experiment [7], the target named is T4, G-protein coupled receptor 35 (Homo sapiens, UniProt Q9HC97). Nature of the experiment: SAR analysis of Antagonists of the GPR35 Receptor using an Image-Based Assay - Set 4. [Related pubchem assays (depositor defined):[…]]. It counts as functional.
T4 sequence (Q9HC97 whole entry): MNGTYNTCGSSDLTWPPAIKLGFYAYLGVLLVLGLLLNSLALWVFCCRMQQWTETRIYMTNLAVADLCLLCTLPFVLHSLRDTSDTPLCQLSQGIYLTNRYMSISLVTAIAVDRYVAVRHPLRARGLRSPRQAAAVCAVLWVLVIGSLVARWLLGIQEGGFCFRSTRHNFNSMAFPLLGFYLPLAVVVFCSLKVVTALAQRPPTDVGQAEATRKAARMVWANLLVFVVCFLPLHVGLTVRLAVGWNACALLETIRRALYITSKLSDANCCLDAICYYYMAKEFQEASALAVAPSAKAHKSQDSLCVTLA
The target of experiment [8] is T4, G-protein coupled receptor 35. Kind of experiment: SAR analysis of Agonists of the GPR35 Receptor using an Image-Based Assay - Set 3. [Related pubchem assays (depositor defined):AID1961, AID1965]. It counts as functional.
The target in experiment [9] is T2, Cannabinoid receptor 2. Nature of the experiment: SAR analysis of agonists of the Cannabinoid Receptor 2 using an Image-Based Assay - Set 2. [Related pubchem assays (depositor defined):AID1961, AID1965]. It counts as functional.
The target of experiment [10] is T5, Sphingosine 1-phosphate receptor 4 (Homo sapiens, UniProt O95977).
T5 sequence (O95977 whole entry): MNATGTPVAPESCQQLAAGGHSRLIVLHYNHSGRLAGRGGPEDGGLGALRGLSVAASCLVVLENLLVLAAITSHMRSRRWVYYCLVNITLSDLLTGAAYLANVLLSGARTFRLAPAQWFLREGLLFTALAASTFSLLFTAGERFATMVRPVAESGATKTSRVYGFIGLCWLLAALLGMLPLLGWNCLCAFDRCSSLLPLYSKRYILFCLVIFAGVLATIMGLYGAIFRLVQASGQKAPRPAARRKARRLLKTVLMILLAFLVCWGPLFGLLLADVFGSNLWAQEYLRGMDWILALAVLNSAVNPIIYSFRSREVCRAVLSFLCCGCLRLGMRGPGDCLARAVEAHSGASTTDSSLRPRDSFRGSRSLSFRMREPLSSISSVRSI
Nature of the experiment: Late-stage fluorescence dose response cell-based assay to identify agonists of the Sphingosine 1-Phosphate Receptor 4 (S1P4): purchased compounds EC50. [Related pubchem assays (depositor defined):AID1509, AID1523, AID1563, AID1686, AID1701, AID1801]. The class given is functional.

The nature of experiment [11]: PhoP promoter GFP reporter reduction in Typhimurium – purified and synthesized compounds, set 2, PhoP regulon inhibitor project, dose response (AID 2831). It counts as functional.

Calls of active or inactive are those of the source.

T2 sequence (P34972 whole entry): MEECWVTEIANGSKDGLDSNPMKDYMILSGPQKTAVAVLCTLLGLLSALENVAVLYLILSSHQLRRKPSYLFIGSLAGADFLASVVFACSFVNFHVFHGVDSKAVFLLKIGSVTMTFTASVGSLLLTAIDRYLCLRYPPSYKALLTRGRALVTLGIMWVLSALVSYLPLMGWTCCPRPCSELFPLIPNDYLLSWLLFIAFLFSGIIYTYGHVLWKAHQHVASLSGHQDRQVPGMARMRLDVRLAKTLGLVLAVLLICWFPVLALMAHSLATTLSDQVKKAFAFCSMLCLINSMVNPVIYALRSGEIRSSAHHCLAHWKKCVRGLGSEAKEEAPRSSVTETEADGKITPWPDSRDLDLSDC
T1 sequence (Q01196 whole entry, the tested form may be a part): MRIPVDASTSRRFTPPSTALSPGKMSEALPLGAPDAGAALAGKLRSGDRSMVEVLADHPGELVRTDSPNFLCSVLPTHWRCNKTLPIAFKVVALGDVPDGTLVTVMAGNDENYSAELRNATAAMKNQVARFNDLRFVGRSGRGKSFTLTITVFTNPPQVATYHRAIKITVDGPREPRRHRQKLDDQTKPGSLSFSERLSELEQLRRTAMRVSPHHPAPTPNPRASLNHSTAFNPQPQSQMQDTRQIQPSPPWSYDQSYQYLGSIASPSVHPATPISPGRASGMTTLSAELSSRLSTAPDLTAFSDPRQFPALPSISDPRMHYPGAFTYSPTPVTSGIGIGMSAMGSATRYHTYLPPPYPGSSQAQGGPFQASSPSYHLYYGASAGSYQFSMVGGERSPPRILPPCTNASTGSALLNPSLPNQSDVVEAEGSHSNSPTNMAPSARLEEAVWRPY
T1 sequence (Q13951 whole entry, the tested form may be a part): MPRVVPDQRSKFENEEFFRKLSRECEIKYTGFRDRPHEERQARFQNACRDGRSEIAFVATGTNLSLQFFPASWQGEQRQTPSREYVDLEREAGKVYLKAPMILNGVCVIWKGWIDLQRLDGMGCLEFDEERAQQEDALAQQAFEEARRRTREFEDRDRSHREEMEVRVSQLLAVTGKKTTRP
T3 sequence (P21554 whole entry): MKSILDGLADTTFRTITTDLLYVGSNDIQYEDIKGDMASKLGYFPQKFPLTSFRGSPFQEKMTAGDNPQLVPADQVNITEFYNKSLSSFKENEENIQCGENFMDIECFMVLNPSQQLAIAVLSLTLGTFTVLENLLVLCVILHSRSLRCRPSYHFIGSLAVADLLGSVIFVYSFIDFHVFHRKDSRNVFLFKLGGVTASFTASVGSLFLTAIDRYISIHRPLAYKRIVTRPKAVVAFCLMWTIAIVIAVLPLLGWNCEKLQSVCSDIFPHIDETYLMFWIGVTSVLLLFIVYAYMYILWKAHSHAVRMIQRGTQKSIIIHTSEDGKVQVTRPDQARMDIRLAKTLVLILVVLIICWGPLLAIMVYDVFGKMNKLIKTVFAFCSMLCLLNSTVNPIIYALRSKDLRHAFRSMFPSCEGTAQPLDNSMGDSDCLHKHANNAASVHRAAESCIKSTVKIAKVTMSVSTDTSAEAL
Chain of G-protein coupled receptor 55 (Q9Y2T6 whole entry): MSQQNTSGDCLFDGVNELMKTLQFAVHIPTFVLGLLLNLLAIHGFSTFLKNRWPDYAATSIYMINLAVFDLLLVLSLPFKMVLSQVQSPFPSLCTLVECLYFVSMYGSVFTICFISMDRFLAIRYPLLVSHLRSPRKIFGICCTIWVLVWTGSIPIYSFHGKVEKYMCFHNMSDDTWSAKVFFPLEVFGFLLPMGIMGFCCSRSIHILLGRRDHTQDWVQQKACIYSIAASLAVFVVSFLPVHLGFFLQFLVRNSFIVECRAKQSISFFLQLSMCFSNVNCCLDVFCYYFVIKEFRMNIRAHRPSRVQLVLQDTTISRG

As for `Cc1ccc(S(=O)(=O)c2c(N)n(Cc3ccco3)c3nc4ccccc4nc23)cc1`, the IC50 in experiment [1] and in experiment [2] was > 100 µM (inactive) each time.

In the case of `Cc1ccc(Cl)cc1N1CCN(C(=O)c2cc(S(=O)(=O)N(C)C)ccc2N2CCCC2)CC1`, the IC50 (at Cannabinoid receptor 2 [3]; at Cannabinoid receptor 1 [4]; in experiment [7]) was > 32 µM (inactive) in each case. Also, the EC50 on Cannabinoid receptor 1 [5] is > 32 µM (inactive); in experiment [6], 8.84 µM (active); in experiment [8] it was > 32 µM (inactive); at Cannabinoid receptor 2 [9], > 32 µM (inactive).

In the case of `Cc1nn(Cc2ccccc2)c(Cl)c1C(=O)OC(C)C#N` (stereo unspecified), the EC50 in [10] was > 50 µM (inactive).

Take `S=C(NCc1ccc(Cl)cc1)Nc1ccc(Cl)cc1`: the IC50 in experiment [11] is > 150 µM (active).
